# Assay results as given in ChEMBL document CHEMBL1124431, “Preparation and antitumor activity of additional mitomycin A analogues” (J Med Chem, 1989).
# Assays:
# [1] = Partition coefficient (logP); type: physicochemical; conditions: octanol/water
# Mus musculus = species on record: Mus musculus; test: log(1/C) was estimated in mice; type: organism-based; conditions: in vivo
# P388 [2] = test: Minimum effective dose was determined on P388 leukemia cells in mice; type: functional, Mus musculus; conditions: for minimal effective dose: Mus musculus, P388, read-out: MED
# P388 [3] = test: Maximal effect of the given optimal dose of 12.8 mg/kg against P388 leukemia cells in mice; type: functional, Mus musculus
# B16 [4] = test: Maximal effect of the given optimal dose of 1.2 mg/kg against B16 melanoma in mice; type: functional, Mus musculus
# B16 [5] = test: Minimum effective dose was determined on B16 melanoma cells in mice; type: functional; conditions: Mus musculus, read-out: MED
# P388 [6] = test: Maximal effect of the given optimal dose of 1.6 mg/kg against P388 leukemia cells in mice; type: functional, Mus musculus
# P388 [7] = test: Maximal effect of the given optimal dose of 0.4 mg/kg against P388 leukemia cells in mice; type: functional, Mus musculus
# P388 [8] = test: Maximal effect of the given optimal dose of 0.2 mg/kg against P388 leukemia cells in mice; type: functional, Mus musculus
# P388 [9] = test: Maximal effect of the given optimal dose of 3.2 mg/kg against P388 leukemia cells in mice; type: functional, Mus musculus
# B16 [10] = test: Maximal effect of the given optimal dose of 0.8 mg/kg against B16 melanoma in mice; type: functional, Mus musculus
# P388 [11] = test: Maximal effect of the given optimal dose of 0.8 mg/kg against P388 leukemia cells in mice; type: functional, Mus musculus
# B16 [12] = test: Maximal effect of the given optimal dose of 0.3 mg/kg against B16 melanoma in mice; type: functional, Mus musculus
# B16 [13] = test: Maximal effect of the given optimal dose of 1.6 mg/kg against B16 melanoma in mice; type: functional, Mus musculus
# B16 [14] = test: Maximal effect of the given optimal dose of 0.4 mg/kg against B16 melanoma cells in mice; type: organism-based; parameters: dose 0.4 mg/kg; conditions: mouse, in vivo
# P388 [15] = test: Maximal effect of the given optimal dose of 6.4 mg/kg against P388 leukemia cells in mice; type: functional, Mus musculus
smiles,measurement,setting,value
CO[C@@]12C(COC(N)=O)C3=C(C(=O)C(C)=C(OCCCN4CCN(C)CC4)C3=O)N1CC1NC12 (some centres undefined),logP,[1],1.16
same,Log 1/C,Mus musculus,4.9
same,MED,P388 [2],1.265e-05 M/kg
same,minimal effective dose,P388 [2],6.4 mg/kg
same,T/C,P388 [3],>167%
CCO[Si](CCCOC1=C(C)C(=O)C2=C(C1=O)C(COC(N)=O)[C@@]1(OC)C3NC3CN21)(OCC)OCC (some centres undefined),Log 1/C,Mus musculus,6.44
same,MED,P388 [2],3.59e-07 M/kg
same,minimal effective dose,P388 [2],0.2 mg/kg
same,T/C,P388 [3],167%
CO[C@@]12C(COC(N)=O)C3=C(C(=O)C(C)=C(OC4COCOC4)C3=O)N1CC1NC12 (some centres undefined),logP,[1],0.31
same,Log 1/C,Mus musculus,6.93
same,T/C,B16 [4],222%
same,minimal effective dose,B16 [5],< 0.3 mg/kg
same,MED,P388 [2],1.18e-07 M/kg
same,minimal effective dose,P388 [2],< 0.1 mg/kg
same,T/C,P388 [6],210%
CO[C@@]12C(COC(N)=O)C3=C(C(=O)C(C)=C(OCC4OCCO4)C3=O)N1CC1NC12 (some centres undefined),logP,[1],-0.18
same,Log 1/C,Mus musculus,7.23
same,MED,P388 [2],5.88e-07 M/kg
same,minimal effective dose,P388 [2],< 0.05 mg/kg
same,T/C,P388 [7],267%
CO[C@@]12C(COC(N)=O)C3=C(C(=O)C(C)=C(OCCCN(CCO)CCO)C3=O)N1CC1NC12 (some centres undefined),logP,[1],-0.28
same,T/C,P388 [8],106%
CO[C@@]12C(COC(N)=O)C3=C(C(=O)C(C)=C(OC4CCN(C)CC4)C3=O)N1CC1NC12 (some centres undefined),logP,[1],1.46
same,Log 1/C,Mus musculus,5.15
same,MED,P388 [2],7.1e-06 M/kg
same,minimal effective dose,P388 [2],3.2 mg/kg
same,T/C,P388 [9],155%
COCC(O)COC1=C(C)C(=O)C2=C(C1=O)C(COC(N)=O)[C@@]1(OC)C3NC3CN21 (some centres undefined),logP,[1],-0.59
same,Log 1/C,Mus musculus,6.94
same,minimal effective dose,B16 [5],0.2 mg/kg
same,T/C,B16 [10],211%
same,MED,P388 [2],1.16e-07 M/kg
same,minimal effective dose,P388 [2],< 0.1 mg/kg
same,T/C,P388 [11],222%
CCOC(=O)CCCOC1=C(C)C(=O)C2=C(C1=O)C(COC(N)=O)[C@@]1(OC)C3NC3CN21 (some centres undefined),logP,[1],1.49
same,Log 1/C,Mus musculus,4.85
same,MED,P388 [2],1.41e-05 M/kg
same,minimal effective dose,P388 [2],6.4 mg/kg
same,T/C,P388 [3],171%
COC1=C(C)C(=O)C2=C(C1=O)[C@@H](COC(N)=O)[C@@]1(OC)[C@H]3N[C@H]3CN21 [MITOMYCIN A],Log 1/C,Mus musculus,6.84
same,minimal effective dose,B16 [5],0.05 mg/kg
same,T/C,B16 [12],177%
same,MED,P388 [2],1.43e-07 M/kg
same,minimal effective dose,P388 [2],0.05 mg/kg
same,T/C,P388 [9],180%
CO[C@@]12C(COC(N)=O)C3=C(C(=O)C(C)=C(OCCN4CCCCC4)C3=O)N1CC1NC12 (some centres undefined),logP,[1],1.96
same,Log 1/C,Mus musculus,6.06
same,MED,P388 [2],8.71e-07 M/kg
same,minimal effective dose,P388 [2],0.4 mg/kg
same,T/C,P388 [3],191%
CO[C@@]12C(COC(N)=O)C3=C(C(=O)C(C)=C(OCC4COCO4)C3=O)N1CC1NC12 (some centres undefined),logP,[1],0.31
same,Log 1/C,Mus musculus,6.32
same,MED,P388 [2],4.75e-07 M/kg
same,minimal effective dose,P388 [2],0.2 mg/kg
same,T/C,P388 [7],140%
CO[C@@]12C(COC(N)=O)C3=C(C(=O)C(C)=C(OC4CCOCC4)C3=O)N1CC1NC12 (some centres undefined),logP,[1],1.29
same,Log 1/C,Mus musculus,6.93
same,T/C,B16 [13],135%
same,minimal effective dose,B16 [5],1.6 mg/kg
same,MED,P388 [2],1.17e-07 M/kg
same,minimal effective dose,P388 [2],< 0.1 mg/kg
same,T/C,P388 [9],212%
CO[C@@]12C(COC(N)=O)C3=C(C(=O)C(C)=C(OCCN4CCCC4)C3=O)N1CC1NC12 (some centres undefined),logP,[1],1.46
same,Log 1/C,Mus musculus,6.94
same,T/C,B16 [14],107%
same,MED,P388 [2],1.13e-07 M/kg
same,minimal effective dose,P388 [2],< 0.1 mg/kg
same,T/C,P388 [15],217%
CCOCCOC1=C(C)C(=O)C2=C(C1=O)C(COC(N)=O)[C@@]1(OC)C3NC3CN21 (some centres undefined),logP,[1],0.79
same,Log 1/C,Mus musculus,7.33
same,MED,P388 [2],4.65e-07 M/kg
same,minimal effective dose,P388 [2],0.2 mg/kg
same,T/C,P388 [6],133%
CO[C@@]12C(COC(N)=O)C3=C(C(=O)C(C)=C(OCC4CC4)C3=O)N1CC1NC12 (some centres undefined),logP,[1],1.67
same,Log 1/C,Mus musculus,5.97
same,MED,P388 [2],1.028e-06 M/kg
same,minimal effective dose,P388 [2],0.4 mg/kg
same,T/C,P388 [6],144%
CCN1CCCC1CCOC1=C(C)C(=O)C2=C(C1=O)C(COC(N)=O)[C@@]1(OC)C3NC3CN21 (some centres undefined),logP,[1],1.96
same,Log 1/C,Mus musculus,6.96
same,MED,P388 [2],1.09e-07 M/kg
same,minimal effective dose,P388 [2],< 0.1 mg/kg
same,T/C,P388 [3],211%
